Experimental data as given in patent US20100227859A1, “TRICYCLIC COMPOUNDS AS MATRIX METALLOPROTEINASE INHIBITORS” (priority 2007, published 2010).

These compounds were tested against purified human MMP-12 enzyme (Homo sapiens, UniProt P39900) (assay: MMP-12 FRET assay). Conditions: substrate 20 μM, room temperature.
Chain of purified human MMP-12 enzyme (P39900 106-470): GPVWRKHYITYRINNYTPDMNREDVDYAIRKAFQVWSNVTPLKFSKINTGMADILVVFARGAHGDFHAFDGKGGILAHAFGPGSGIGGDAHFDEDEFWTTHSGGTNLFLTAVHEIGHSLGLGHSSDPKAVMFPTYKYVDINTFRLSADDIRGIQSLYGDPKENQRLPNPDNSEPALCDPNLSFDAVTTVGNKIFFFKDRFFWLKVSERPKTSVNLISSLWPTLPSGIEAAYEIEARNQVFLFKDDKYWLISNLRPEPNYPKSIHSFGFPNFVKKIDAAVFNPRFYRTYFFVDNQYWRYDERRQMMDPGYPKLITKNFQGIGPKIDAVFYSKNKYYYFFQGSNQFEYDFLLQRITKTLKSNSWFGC
Assay type: biochemical
Summary of the method: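 Initial fluorescence rate (325/395 nm) of cleavage of MCA-Pro-Leu-Gly-Leu-Dpa(DNP)-Ala-Arg, 20 μM final, was followed for 30 min at room temperature after a 30 min enzyme–compound preincubation. Buffer: 50 mM HEPES pH 7.4, 100 mM NaCl, 5 mM CaCl2, 0.005% Brij-35, with 10% final DMSO. IC50 came from a Hill-type fit of rate versus inhibitor concentration.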
For CC(C)[C@H](NS(=O)(=O)c1ccc2c(c1)oc1ccc(-c3nc4ccccc4s3)cc12)C(=O)O [Compound 151, (S)-2-(8-(benzo[d]thiazol-2-yl)dibenzo[b,d]furan-3-sulfonamido)-3-methylbutanoic acid], the IC50 was under 1.5 nM. CC(C)[C@H](NS(=O)(=O)c1ccc2c(c1)oc1ccc(-c3cncnc3)cc12)C(=O)O [Compound 152, (S)-3-methyl-2-(8-(pyrimidin-5-yl)dibenzo[b,d]furan-3-sulfonamido)butanoic acid] showed an IC50 of under 1.5 nM. For CC(C)[C@H](NS(=O)(=O)c1ccc2c(c1)oc1cc(-c3nc(C(F)(F)F)c(Cl)s3)ccc12)C(=O)O [Compound 233, (S)-2-(7-(5-chloro-4-(trifluoromethyl)thiazol-2-yl)dibenzo[b,d]furan-3-sulfonamido)-3-methylbutanoic acid], the IC50 was under 1.5 nM. “(S)-3-methyl-2-(8-(5-((methylamino)methyl)furan-2-yl)dibenzo[b,d]furan-3-sulfonamido)butanoic acid [Compound 68]” showed an IC50 of 13 nM. Compound CC(C)[C@H](NS(=O)(=O)c1ccc2c(c1)oc1cc(-c3noc(-c4ccc(F)cc4)n3)ccc12)C(=O)O [Compound 188, (S)-2-(7-(5-(4-fluorophenyl)-1,2,4-oxadiazol-3-yl)dibenzo[b,d]furan-3-sulfonamido)-3-methylbutanoic acid] has an IC50 of 8.6 nM. CC(C)[C@H](NS(=O)(=O)c1ccc2c(c1)sc1ccc(-c3ccc[nH]3)cc12)C(=O)O [Compound 57, (S)-2-(8-(1H-pyrrol-2-yl)dibenzo[b,d]thiophene-3-sulfonamido)-3-methylbutanoic acid] showed an IC50 of 21 nM. CC(C)(C)c1nc(-c2ccc3c(c2)oc2ccc(S(=O)(=O)N[C@H](Cc4ccccc4)C(=O)O)cc23)no1 [Compound 275, (R)-2-(7-(5-tert-butyl-1,2,4-oxadiazol-3-yl)dibenzo[b,d]furan-2-sulfonamido)-3-phenylpropanoic acid] gave an IC50 of 4.1 nM. In the case of CC(C)[C@H](NS(=O)(=O)c1ccc2c(c1)sc1cc(-c3ccccc3)ccc12)C(=O)O [Compound 313, (S)-3-methyl-2-(7-phenyldibenzo[b,d]thiophene-3-sulfonamido)butanoic acid], the IC50 is reported as under 1.5 nM. COc1ccc2nc(-c3ccc4c(c3)oc3ccc(S(=O)(=O)N[C@@H](C(=O)O)C(C)C)cc34)sc2c1 [Compound 296, (R)-2-(7-(6-methoxybenzo[d]thiazol-2-yl)dibenzo[b,d]furan-2-sulfonamido)-3-methylbutanoic acid] was tested, and the IC50 was 3.1 nM. CC(C)[C@H](NS(=O)(=O)c1ccc2c(c1)oc1ccc(-c3nnn(C)n3)cc12)C(=O)O [Compound 132, (S)-3-methyl-2-(8-(2-methyl-2H-tetrazol-5-yl)dibenzo[b,d]furan-3-sulfonamido)butanoic acid] gave an IC50 of 2 nM. With CC(C)[C@H](NS(=O)(=O)c1ccc2c(c1)oc1ccc(C3=NCCS3)cc12)C(=O)O [Compound 107, (S)-2-(8-(4,5-dihydrothiazol-2-yl)dibenzo[b,d]furan-3-sulfonamido)-3-methylbutanoic acid] the IC50 was 21 nM. Work on CC(C)[C@H](NS(=O)(=O)c1ccc2c(c1)oc1ccc(-c3noc(C4CCCC4)n3)cc12)C(=O)O [Compound 263, (S)-2-(8-(5-cyclopentyl-1,2,4-oxadiazol-3-yl)dibenzo[b,d]furan-3-sulfonamido)-3-methylbutanoic acid] yielded an IC50 of 2.5 nM. For CC(C)[C@H](NS(=O)(=O)c1ccc2c(c1)oc1ccc(-c3ncc(Cl)s3)cc12)C(=O)O [Compound 224, (S)-2-(8-(5-chlorothiazol-2-yl)dibenzo[b,d]furan-3-sulfonamido)-3-methylbutanoic acid], the IC50 was under 1.5 nM. CC(C)[C@H](NS(=O)(=O)c1ccc2oc3cc(-c4ccc(C(C)(C)C)o4)ccc3c2c1)C(=O)O [Compound 241, (S)-2-(7-(5-tert-butylfuran-2-yl)dibenzo[b,d]furan-2-sulfonamido)-3-methylbutanoic acid] was tested, and the IC50 was 170 nM. CC(C)[C@H](NS(=O)(=O)c1ccc2c(c1)sc1cc(-c3ccc(Cl)s3)ccc12)C(=O)O [Compound 304, (S)-2-(7-(5-chlorothiophen-2-yl)dibenzo[b,d]thiophene-3-sulfonamido)-3-methylbutanoic acid] was tested, and the IC50 was 1.5 nM. CC(C)[C@H](NS(=O)(=O)c1ccc2c(c1)oc1ccc(-c3ncon3)cc12)C(=O)O [Compound 93, (S)-2-(8-(1,2,4-oxadiazol-3-yl)dibenzo[b,d]furan-3-sulfonamido)-3-methylbutanoic acid] gave an IC50 of 68 nM. Compound CC(C)[C@H](NS(=O)(=O)c1ccc2c(c1)oc1ccc(-c3ccc(-c4ccno4)s3)cc12)C(=O)O [Compound 211, (S)-2-(8-(5-(isoxazol-5-yl)thiophen-2-yl)dibenzo[b,d]furan-3-sulfonamido)-3-methylbutanoic acid] has an IC50 of 295 nM. CCN(CC)C(=N)c1ccc2oc3cc(S(=O)(=O)N[C@H](C(=O)O)C(C)C)ccc3c2c1 [Compound 106, (S)-2-(8-(N,N-diethylcarbamimidoyl)dibenzo[b,d]furan-3-sulfonamido)-3-methylbutanoic acid] was tested, and the IC50 was 400 nM. Work on CC(C)CCn1cc(-c2ccc3oc4cc(S(=O)(=O)N[C@H](C(=O)O)C(C)C)ccc4c3c2)cn1 [Compound 20, (S)-2-(8-(1-isopentyl-1H-pyrazol-4-yl)dibenzo[b,d]furan-3-sulfonamido)-3-methylbutanoic acid] yielded an IC50 of 4 nM. In the case of CC(C)[C@@H](NS(=O)(=O)c1ccc2oc3cc(-c4ccc(-c5ccccc5)s4)ccc3c2c1)C(=O)O [Compound 289, (R)-3-methyl-2-(7-(5-phenylthiophen-2-yl)dibenzo[b,d]furan-2-sulfonamido)butanoic acid], the IC50 is reported as 9.1 nM. Work on CC(C)(C)c1nc(-c2ccc3oc4cc(S(=O)(=O)N[C@@H](C(=O)O)c5ccccc5)ccc4c3c2)no1 [Compound 255, (R)-2-(8-(5-tert-butyl-1,2,4-oxadiazol-3-yl)dibenzo[b,d]furan-3-sulfonamido)-2-phenylacetic acid] yielded an IC50 of 21 nM.
